Patent US4994477A, “Heterocyclic renin inhibitors” (Abbott Laboratories, priority 1988, dated 1991)

Biological target: T1, human renal renin (Homo sapiens, UniProt P00797)
T1 construct: human renal renin, free from acid proteolytic activity; from tissue; host or cells: human kidney (from the word 'renal')
T1 sequence (P00797 67-406): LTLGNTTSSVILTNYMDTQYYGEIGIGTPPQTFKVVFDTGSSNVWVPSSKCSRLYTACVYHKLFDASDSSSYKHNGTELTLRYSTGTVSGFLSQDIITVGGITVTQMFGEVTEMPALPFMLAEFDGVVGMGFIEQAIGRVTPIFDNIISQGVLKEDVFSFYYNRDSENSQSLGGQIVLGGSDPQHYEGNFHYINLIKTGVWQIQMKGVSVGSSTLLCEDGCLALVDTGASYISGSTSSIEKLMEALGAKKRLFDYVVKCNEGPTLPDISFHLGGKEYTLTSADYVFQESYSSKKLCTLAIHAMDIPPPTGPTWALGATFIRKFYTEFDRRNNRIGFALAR
Assay: inhibition of human renal renin in vitro, angiotensin I formed measured by radioimmunoassay
Format: biochemical
Conditions: human angiotensinogen substrate, 37 degrees C, pH 6.0
Experimental: At the end of the incubation, the amount of angiotensin I formed is measured by radioimmunoassay and the molar concentration required to cause 50% inhibition, expressed as the IC50, is calculated.

SMILES	IC50 [nM]
CC(C)C[C@H](O)[C@H](O)[C@H](CC1CCCCC1)NC(=O)[C@H](CC(C)C)N1Cc2c([nH]c3ccccc23)C1=O [Example 70, (1'S,2"S,3"R,4"S)-2-[1-[N-(1-cyclohexyl-3,4-dihydroxy-6-methyl-2-heptyl)carbamoyl]-3-methylbutyl]-1,2,3,4-tetrahydropyrrolo[3,4-b]indol-3-one]	100
CC(C)C[C@H](O)[C@H](O)[C@H](CC1CCCCC1)NC(=O)[C@H](Cc1c[nH]cn1)NC(=O)N1CCc2ccccc2C1 [Example 114, N-(1,2,3,4-Tetrahydroisoquinolinyl-2-carbonyl)-His Amide of 2(S)-Amino-1-cyclohexyl-3(R),4(S)-dihydroxy-6-methylheptane]	63
CC(C)C[C@H](O)[C@H](O)[C@H](CC1CCCCC1)NC(=O)[C@H](Cc1c[nH]cn1)NC(=O)c1cc2ccccc2n1C [Example 41, N-(1-Methylindolyl-2-carbonyl)-His Amide of 2(S)-Amino-1-cyclohexyl-3(R),4(S)-dihydroxy6-methylheptane]	160
CC(C)C[C@H](O)[C@H](O)[C@H](CC1CCCCC1)NC(=O)[C@H](Cc1c[nH]cn1)NC(=O)c1ccc2ccccc2c1 [Example 151, N-(2-Napthoyl)-His Amide of 2(S)-Amino-1-cyclohexyl-3(R),4(S)-dihydroxy-6-methylheptane]	32
CC(C)C[C@H](O)[C@H](O)[C@H](CC1CCCCC1)NC(=O)[C@H](Cc1cscn1)N1Cc2c([nH]c3ccccc23)C1=O [Example 81, (1'S,2"S,3"R,4"S)-2-[1-[N-(1-cyclohexyl-3,4-dihydroxy-6-methyl-2-heptyl)carbamoyl]-2-(4-thiazolyl)ethyl]-1,2,3,4-tetrahydropyrrolo[3,4-b]indol-3-one]	5
CCN1C[C@@H]([C@H](O)[C@H](CC2CCCCC2)NC(=O)C(Cc2cscn2)N2Cc3c([nH]c4ccccc34)C2=O)OC1=O (stereo partly drawn) [Example 88, (1'RS,2"S,3"R,5"'S)-2-[1-[N-[1-Cyclohexyl-3-hydroxy-3-(3-ethyloxazolidin-2-on-5-yl)-2-propyl]carbamoyl]-2-(4-thiazolyl)ethyl]-1,2,3,4-tetrahydropyrrolo[3,4-b]indol-3-one]	28
CC(C)C[C@H](O)[C@H](O)[C@H](CC1CCCCC1)NC(=O)[C@H](CCC(=O)O)NC(=O)c1cc2ccccc2[nH]1 [Example 38, N-(Indolyl-2-carbonyl)-Glu Amide of 2(S)-Amino-1-cyclohexyl-3(R),4(S)-dihydroxy-6-methylheptane]	130
